# Legend:
# Test in all cases: relative viability (nuclei count vs DMSO), 5 days (fraction); higher = more cells survive
# 201T = system: 201T
# Procedure, shortened: (§1)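 The day after seeding in 1536-well plates, lung cancer cell lines were treated by pin tool with a single drug, or with a fixed anchor-drug dose together with five library-drug doses (not always all listed) in √10 steps. After 5 days, a combined fix-and-stain solution (final 0.05% Triton X-100, 1% formaldehyde, 1 ug/ml Hoechst) was added. Nuclei counted on 4× images gave relative viability as treated counts over vehicle counts, reported as the median of duplicate plates.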
# A-427 = system: A-427
# Procedure, shortened: as §1
# COR-L 105 = system: COR-L 105
# Procedure, shortened: as §1
# COR-L23 = system: COR-L23
# Procedure, shortened: as §1
# EKVX = system: EKVX
# Procedure, shortened: as §1
# HARA = system: HARA
# Procedure, shortened: as §1
# HCC-15 = system: HCC-15
# Procedure, shortened: as §1
# HCC-44 = system: HCC-44
# Procedure, shortened: as §1
# HCC-827 = system: HCC-827
# Procedure, shortened: as §1
# LCLC-103H = system: LCLC-103H
# Procedure, shortened: as §1
# LK-2 = system: LK-2
# Procedure, shortened: as §1
# NCI-H1437 = system: NCI-H1437
# Procedure, shortened: as §1
# NCI-H1666 = system: NCI-H1666
# Procedure, shortened: as §1
# NCI-H1792 = system: NCI-H1792
# Procedure, shortened: as §1
# NCI-H1975 = system: NCI-H1975
# Procedure, shortened: as §1
# NCI-H23 = system: NCI-H23
# Procedure, shortened: as §1
# NCI-H441 = system: NCI-H441
# Procedure, shortened: as §1
# NCI-H520 = system: NCI-H520
# Procedure, shortened: as §1
# NCI-H522 = system: NCI-H522
# Procedure, shortened: as §1
# NCI-H650 = system: NCI-H650
# Procedure, shortened: as §1
# NCI-H838 = system: NCI-H838
# Procedure, shortened: as §1
# SK-MES-1 = system: SK-MES-1
# Procedure, shortened: as §1
# SW 900 = system: SW 900
# Procedure, shortened: as §1
smiles,measurement,setting,value
C[C@@H]1CN(CC(=O)Nc2ccc3c(c2)Cc2cccc(-c4cc(=O)cc(N5CCOCC5)o4)c2S3)C[C@H](C)O1 + CC(=O)c1c(C)c2cnc(Nc3ccc(N4CCNCC4)cn3)nc2n(C2CCCC2)c1=O [Palbociclib] (partner 0.5 µM),relative viability,201T; first compound 0.04 µM,0.345
same,relative viability,201T; first compound 0.1265 µM,0.35
same,relative viability,201T; first compound 0.4 µM,0.361
same,relative viability,201T; first compound 4 µM,0.336
same,relative viability,A-427; first compound 0.04 µM,0.428
same,relative viability,A-427; first compound 0.1265 µM,0.531
same,relative viability,A-427; first compound 0.4 µM,0.537
same,relative viability,A-427; first compound 4 µM,0.593
same,relative viability,COR-L 105; first compound 0.04 µM,0.391
same,relative viability,COR-L 105; first compound 0.1265 µM,0.424
same,relative viability,COR-L 105; first compound 0.4 µM,0.397
same,relative viability,COR-L 105; first compound 4 µM,0.328
same,relative viability,COR-L23; first compound 0.04 µM,0.294
same,relative viability,COR-L23; first compound 0.1265 µM,0.281
same,relative viability,COR-L23; first compound 0.4 µM,0.379
same,relative viability,COR-L23; first compound 4 µM,0.24
same,relative viability,EKVX; first compound 0.04 µM,0.342
same,relative viability,EKVX; first compound 0.1265 µM,0.396
same,relative viability,EKVX; first compound 0.4 µM,0.308
same,relative viability,EKVX; first compound 4 µM,0.288
same,relative viability,HARA; first compound 0.04 µM,0.234
same,relative viability,HARA; first compound 0.1265 µM,0.186
same,relative viability,HARA; first compound 0.4 µM,0.272
same,relative viability,HARA; first compound 4 µM,0.226
same,relative viability,HCC-15; first compound 0.04 µM,0.706
same,relative viability,HCC-15; first compound 0.1265 µM,0.708
same,relative viability,HCC-15; first compound 0.4 µM,0.751
same,relative viability,HCC-15; first compound 4 µM,0.678
same,relative viability,HCC-44; first compound 0.04 µM,0.917
same,relative viability,HCC-44; first compound 0.1265 µM,0.965
same,relative viability,HCC-44; first compound 0.4 µM,0.929
same,relative viability,HCC-44; first compound 4 µM,0.919
same,relative viability,HCC-827; first compound 0.04 µM,0.502
same,relative viability,HCC-827; first compound 0.1265 µM,0.49
same,relative viability,HCC-827; first compound 0.4 µM,0.433
same,relative viability,HCC-827; first compound 4 µM,0.442
same,relative viability,LCLC-103H; first compound 0.04 µM,0.441
same,relative viability,LCLC-103H; first compound 0.1265 µM,0.47
same,relative viability,LCLC-103H; first compound 0.4 µM,0.446
same,relative viability,LCLC-103H; first compound 4 µM,0.47
same,relative viability,LK-2; first compound 0.04 µM,0.6
same,relative viability,LK-2; first compound 0.1265 µM,0.697
same,relative viability,LK-2; first compound 0.4 µM,0.651
same,relative viability,LK-2; first compound 4 µM,0.792
same,relative viability,NCI-H1437; first compound 0.04 µM,0.309
same,relative viability,NCI-H1437; first compound 0.1265 µM,0.282
same,relative viability,NCI-H1437; first compound 0.4 µM,0.327
same,relative viability,NCI-H1437; first compound 4 µM,0.255
same,relative viability,NCI-H1666; first compound 0.04 µM,0.584
same,relative viability,NCI-H1666; first compound 0.1265 µM,0.616
same,relative viability,NCI-H1666; first compound 0.4 µM,0.611
same,relative viability,NCI-H1666; first compound 4 µM,0.662
same,relative viability,NCI-H1792; first compound 0.04 µM,0.61
same,relative viability,NCI-H1792; first compound 0.1265 µM,0.594
same,relative viability,NCI-H1792; first compound 0.4 µM,0.658
same,relative viability,NCI-H1792; first compound 4 µM,0.563
same,relative viability,NCI-H1975; first compound 0.04 µM,0.578
same,relative viability,NCI-H1975; first compound 0.1265 µM,0.58
same,relative viability,NCI-H1975; first compound 0.4 µM,0.395
same,relative viability,NCI-H1975; first compound 4 µM,0.487
same,relative viability,NCI-H23; first compound 0.04 µM,0.455
same,relative viability,NCI-H23; first compound 0.1265 µM,0.538
same,relative viability,NCI-H23; first compound 0.4 µM,0.436
same,relative viability,NCI-H23; first compound 4 µM,0.495
same,relative viability,NCI-H441; first compound 0.04 µM,0.257
same,relative viability,NCI-H441; first compound 0.1265 µM,0.213
same,relative viability,NCI-H441; first compound 0.4 µM,0.223
same,relative viability,NCI-H441; first compound 4 µM,0.227
same,relative viability,NCI-H520; first compound 0.04 µM,0.219
same,relative viability,NCI-H520; first compound 0.1265 µM,0.259
same,relative viability,NCI-H520; first compound 0.4 µM,0.172
same,relative viability,NCI-H520; first compound 4 µM,0.215
same,relative viability,NCI-H522; first compound 0.04 µM,0.934
same,relative viability,NCI-H522; first compound 0.1265 µM,0.839
same,relative viability,NCI-H522; first compound 0.4 µM,1.06
same,relative viability,NCI-H522; first compound 4 µM,0.972
same,relative viability,NCI-H650; first compound 0.04 µM,0.319
same,relative viability,NCI-H650; first compound 0.1265 µM,0.389
same,relative viability,NCI-H650; first compound 0.4 µM,0.378
same,relative viability,NCI-H650; first compound 4 µM,0.281
same,relative viability,NCI-H838; first compound 0.04 µM,0.233
same,relative viability,NCI-H838; first compound 0.1265 µM,0.204
same,relative viability,NCI-H838; first compound 0.4 µM,0.207
same,relative viability,NCI-H838; first compound 4 µM,0.179
same,relative viability,SK-MES-1; first compound 0.04 µM,0.35
same,relative viability,SK-MES-1; first compound 0.1265 µM,0.323
same,relative viability,SK-MES-1; first compound 0.4 µM,0.309
same,relative viability,SK-MES-1; first compound 4 µM,0.302
same,relative viability,SW 900; first compound 0.04 µM,0.532
same,relative viability,SW 900; first compound 0.1265 µM,0.472
same,relative viability,SW 900; first compound 0.4 µM,0.564
same,relative viability,SW 900; first compound 4 µM,0.412

# Source: the supplement of paper PMC10307832
